In ChEMBL document CHEMBL1151830, “Cottoquinazoline A and cotteslosins A and B, metabolites from an Australian marine-derived strain of Aspergillus versicolor” (J Nat Prod, 2009):
In brackets after ≈: the same amount, converted by molar mass. Non-standard residues stand in square brackets, D forms with d. Residues, ends and D or L forms follow the SMILES beside them. NMeY = CN[C@@H](Cc1ccc(O)cc1)C(=O)O

Tests used:
Type in all cases: functional, cell-based
T47D = assay: Cytotoxicity against human T47D cells
[1] = Cytotoxicity against human MM418c5 cells
DU-145 = assay: Cytotoxicity against human DU145 cells

## CC[C@H](C)[C@@H]1NC(=O)[C@H](C(C)C)NC(=O)[C@@H]2CCCN2C(=O)[C@H](Cc2ccc(O)cc2)NC(=O)[C@H](Cc2ccc(O)cc2)N(C)C1=O [COTTESLOSIN A] (cyclo(I[NMeY]YPV))
T47D
  EC50: 94 µg/mL (≈ 145 µM)
[1]
  EC50: 66 µg/mL (≈ 102 µM)
DU-145
  EC50: 90 µg/mL (≈ 139 µM)
